{"source": "patent US20200390702A1", "about": "“LIPOSOMAL TAXANES FOR TREATMENT OF SCLC” (Plus Therapeutics, Inc., priority 2017, published 2020)", "origin": "cited, not measured here", "tested_on": "SCLC", "settings": "intravenous", "note": "Where two headings read alike, the source gives them in different places.", "data": [{"compound": "CC[C@@]1(O)C(=O)OCc2c1cc1n(c2=O)Cc2cc3c(CN(C)C)c(O)ccc3nc2-1", "note": "[Topotecan]", "values": [{"measurement": "response rate", "setting": "chemotherapy-refractory relapsed cases", "result": 4.0, "unit": "%"}, {"measurement": "response rate", "setting": "chemotherapy-sensitive relapsed cases", "result": 20.4, "unit": "%"}]}]}
